Molecular target: T1, full length AKT E17K (Homo sapiens, UniProt P31749, E17K)
T1 construct: host or cells: HEK-293 (ATCC CRL-1573)
Experiment: NanoBRET Target Engagement (TE) Assay
Format: cell-based
Conditions: competitive tracer displacement in living cells, read-out: AKT1 E17K IC50
Procedure, shortened: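 Compound and tracer incubated 2 h before luminescence at donor 450 nm and acceptor 600 nm, with extracellular signal inhibited. EC50 by sigmoidal variable-slope regression.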

T1 sequence (P31749 whole entry E17K): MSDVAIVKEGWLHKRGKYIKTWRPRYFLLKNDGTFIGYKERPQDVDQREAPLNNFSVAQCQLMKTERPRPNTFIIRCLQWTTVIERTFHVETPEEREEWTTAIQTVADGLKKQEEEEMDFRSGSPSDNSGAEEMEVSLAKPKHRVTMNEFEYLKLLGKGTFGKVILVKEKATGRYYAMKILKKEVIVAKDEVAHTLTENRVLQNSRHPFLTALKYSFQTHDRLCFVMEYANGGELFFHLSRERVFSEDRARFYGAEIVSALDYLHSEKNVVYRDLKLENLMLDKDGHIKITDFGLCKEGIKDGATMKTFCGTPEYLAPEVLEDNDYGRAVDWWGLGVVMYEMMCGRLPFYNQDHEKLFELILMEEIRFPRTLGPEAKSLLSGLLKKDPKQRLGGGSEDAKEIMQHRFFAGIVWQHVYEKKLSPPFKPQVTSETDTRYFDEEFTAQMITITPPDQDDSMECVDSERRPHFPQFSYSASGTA

SMILES: N#Cc1nc2c(C(=O)NC3CCN(Cc4ccc(-n5c(-c6cccnc6N)nc6ccc(-c7ccccc7)nc65)cc4)CC3)cc(F)cc2s1 [Example 183, N-(1-(4-(2-(2-aminopyridin-3-yl)-5-phenyl-3H-imidazo[4,5-b]pyridin-3-yl)benzyl)piperidin-4-yl)-2-cyano-6-fluorobenzo[d]thiazole-4-carboxamide]
- IC50: 60 to 600 nM

SMILES: N#Cc1nc2cc(C(=O)N3CCN(Cc4ccc(-n5c(-c6cccnc6N)nc6ccc(-c7ccccc7)nc65)cc4)CC3)ccc2s1 [Example 184, 5-(4-(4-(2-(2-aminopyridin-3-yl)-5-phenyl-3H-imidazo[4,5-b]pyridin-3-yl)benzyl)piperazine-1-carbonyl)benzo[d]thiazole-2-carbonitrile]
- IC50: < 15 nM

SMILES: N#Cc1nc2cc(C(=O)NC3CCN(Cc4ccc(-n5c(-c6cccnc6N)nc6ccc(-c7ccccc7)nc65)cc4)CC3)ccc2s1 [Example 185, N-(1-(4-(2-(2-aminopyridin-3-yl)-5-phenyl-3H-imidazo[4,5-b]pyridin-3-yl)benzyl)piperidin-4-yl)-2-cyanobenzo[d]thiazole-5-carboxamide]
- IC50: < 15 nM

SMILES: C[C@H]1CN(Cc2ccc(-n3c(-c4cccnc4N)nc4ccc(-c5ccccc5)nc43)cc2)C[C@H](C)N1c1ccnc(C#N)n1 [Example 192, 4-((2S,6S)-4-(4-(2-(2-Aminopyridin-3-yl)-5-phenyl-3H-imidazo[4,5-b]pyridin-3-yl)benzyl)-2,6-dimethylpiperazin-1-yl)pyrimidine-2-carbonitrile]
- IC50: 15 to 60 nM

SMILES: C[C@H]1CN(Cc2ccc(-n3c(-c4cccnc4N)nc4ccc(-c5ccccc5)nc43)cc2)C[C@H](C)N1c1nccc(C#N)n1 [Example 193, 2-((2S,6S)-4-(4-(2-(2-Aminopyridin-3-yl)-5-phenyl-3H-imidazo[4,5-b]pyridin-3-yl)benzyl)-2,6-dimethylpiperazin-1-yl)pyrimidine-4-carbonitrile]
- IC50: 60 to 600 nM

SMILES: C[C@H]1CN(Cc2ccc(-n3c(-c4cccnc4N)nc4ccc(-c5ccccc5)nc43)cc2)C[C@H](C)N1c1cc(C#N)ncn1 [Example 194, 6-((2S,6S)-4-(4-(2-(2-Aminopyridin-3-yl)-5-phenyl-3H-imidazo[4,5-b]pyridin-3-yl)benzyl)-2,6-dimethylpiperazin-1-yl)pyrimidine-4-carbonitrile]
- IC50: 60 to 600 nM

SMILES: C[C@@H]1CN(Cc2ccc(-n3c(-c4cccnc4N)nc4ccc(-c5ccccc5)nc43)cc2)C[C@@H](C)N1c1ccnc(C#N)n1 [Example 195, 4-((2R,6R)-4-(4-(2-(2-aminopyridin-3-yl)-5-phenyl-3H-imidazo[4,5-b]pyridin-3-yl)benzyl)-2,6-dimethylpiperazin-1-yl)pyrimidine-2-carbonitrile]
- IC50: < 15 nM

SMILES: C[C@@H]1CN(Cc2ccc(-n3c(-c4cccnc4N)nc4ccc(-c5ccccc5)nc43)cc2)C[C@@H](C)N1c1nccc(C#N)n1 [Example 196, 2-((2R,6R)-4-(4-(2-(2-aminopyridin-3-yl)-5-phenyl-3H-imidazo[4,5-b]pyridin-3-yl)benzyl)-2,6-dimethylpiperazin-1-yl)pyrimidine-4-carbonitrile]
- IC50: 60 to 600 nM

SMILES: C[C@@H]1CN(Cc2ccc(-n3c(-c4cccnc4N)nc4ccc(-c5ccccc5)nc43)cc2)C[C@@H](C)N1c1cc(C#N)ncn1 [Example 197, 6-((2R,6R)-4-(4-(2-(2-aminopyridin-3-yl)-5-phenyl-3H-imidazo[4,5-b]pyridin-3-yl)benzyl)-2,6-dimethylpiperazin-1-yl)pyrimidine-4-carbonitrile]
- IC50: 60 to 600 nM

SMILES: N#Cc1nccc(N2CCN(Cc3ccc(-n4c(-c5cccnc5N)nc5ccc(-c6ccccc6)nc54)cc3)CC23CC3)n1 [Example 198, 4-(7-(4-(2-(2-Aminopyridin-3-yl)-5-phenyl-3H-imidazo[4,5-b]pyridin-3-yl)benzyl)-4,7-diazaspiro[2.5]octan-4-yl)pyrimidine-2-carbonitrile]
- IC50: 15 to 60 nM

SMILES: N#Cc1ccnc(N2CCN(Cc3ccc(-n4c(-c5cccnc5N)nc5ccc(-c6ccccc6)nc54)cc3)CC23CC3)n1 [Example 199, 2-(7-(4-(2-(2-Aminopyridin-3-yl)-5-phenyl-3H-imidazo[4,5-b]pyridin-3-yl)benzyl)-4,7-diazaspiro[2.5]octan-4-yl)pyrimidine-4-carbonitrile]
- IC50: 60 to 600 nM

SMILES: N#Cc1cc(N2CCN(Cc3ccc(-n4c(-c5cccnc5N)nc5ccc(-c6ccccc6)nc54)cc3)CC23CC3)ncn1 [Example 200, 6-(7-(4-(2-(2-Aminopyridin-3-yl)-5-phenyl-3H-imidazo[4,5-b]pyridin-3-yl)benzyl)-4,7-diazaspiro[2.5]octan-4-yl)pyrimidine-4-carbonitrile]
- IC50: 15 to 60 nM

SMILES: N#Cc1nccc(NC2C3CCC2CN(Cc2ccc(-n4c(-c5cccnc5N)nc5ccc(-c6ccccc6)nc54)cc2)C3)n1 (stereo not drawn) [Example 201, 4-((3-(4-(2-(2-Aminopyridin-3-yl)-5-phenyl-3H-imidazo[4,5-b]pyridin-3-yl)benzyl)-3-azabicyclo[3.2.1]octan-8-yl)amino)pyrimidine-2-carbonitrile]
- IC50: 60 to 600 nM

SMILES: N#Cc1cc(NC2C3CCC2CN(Cc2ccc(-n4c(-c5cccnc5N)nc5ccc(-c6ccccc6)nc54)cc2)C3)ncn1 (stereo not drawn) [Example 202, 6-((3-(4-(2-(2-Aminopyridin-3-yl)-5-phenyl-3H-imidazo[4,5-b]pyridin-3-yl)benzyl)-3-azabicyclo[3.2.1]octan-8-yl)amino)pyrimidine-4-carbonitrile]
- IC50: 600 to 10000 nM

SMILES: N#Cc1nccc(N2C3CCC2CN(Cc2ccc(-n4c(-c5cccnc5N)nc5ccc(-c6ccccc6)nc54)cc2)C3)n1 [Example 203, 4-(3-(4-(2-(2-Aminopyridin-3-yl)-5-phenyl-3H-imidazo[4,5-b]pyridin-3-yl)benzyl)-3,8-diazabicyclo[3.2.1]octan-8-yl)pyrimidine-2-carbonitrile]
- IC50: 60 to 600 nM

SMILES: N#Cc1ccnc(N2C3CCC2CN(Cc2ccc(-n4c(-c5cccnc5N)nc5ccc(-c6ccccc6)nc54)cc2)C3)n1 [Example 204, 2-(3-(4-(2-(2-Aminopyridin-3-yl)-5-phenyl-3H-imidazo[4,5-b]pyridin-3-yl)benzyl)-3,8-diazabicyclo[3.2.1]octan-8-yl)pyrimidine-4-carbonitrile]
- IC50: 600 to 10000 nM

SMILES: N#Cc1cc(N2C3CCC2CN(Cc2ccc(-n4c(-c5cccnc5N)nc5ccc(-c6ccccc6)nc54)cc2)C3)ncn1 [Example 205, 6-(3-(4-(2-(2-Aminopyridin-3-yl)-5-phenyl-3H-imidazo[4,5-b]pyridin-3-yl)benzyl)-3,8-diazabicyclo[3.2.1]octan-8-yl)pyrimidine-4-carbonitrile]
- IC50: 60 to 600 nM

SMILES: C[C@H]1CN(Cc2ccc(-n3c(-c4cccnc4N)nc4ccc(-c5ccccc5)nc43)cc2)CCN1c1ccnc(C#N)n1 [Example 206, (S)-4-(4-(4-(2-(2-Aminopyridin-3-yl)-5-phenyl-3H-imidazo[4,5-b]pyridin-3-yl)benzyl)-2-methylpiperazin-1-yl)pyrimidine-2-carbonitrile]
- IC50: 15 to 60 nM

SMILES: C[C@H]1CN(Cc2ccc(-n3c(-c4cccnc4N)nc4ccc(-c5ccccc5)nc43)cc2)CCN1c1nccc(C#N)n1 [Example 207, (S)-2-(4-(4-(2-(2-Aminopyridin-3-yl)-5-phenyl-3H-imidazo[4,5-b]pyridin-3-yl)benzyl)-2-methylpiperazin-1-yl)pyrimidine-4-carbonitrile]
- IC50: 60 to 600 nM

SMILES: C[C@H]1CN(Cc2ccc(-n3c(-c4cccnc4N)nc4ccc(-c5ccccc5)nc43)cc2)CCN1c1cc(C#N)ncn1 [Example 208, (S)-6-(4-(4-(2-(2-Aminopyridin-3-yl)-5-phenyl-3H-imidazo[4,5-b]pyridin-3-yl)benzyl)-2-methylpiperazin-1-yl)pyrimidine-4-carbonitrile]
- IC50: 60 to 600 nM

SMILES: N#Cc1nccc(N2CC3CCC(C2)N3Cc2ccc(-n3c(-c4cccnc4N)nc4ccc(-c5ccccc5)nc43)cc2)n1 [Example 211, 4-(8-(4-(2-(2-Aminopyridin-3-yl)-5-phenyl-3H-imidazo[4,5-b]pyridin-3-yl)benzyl)-3,8-diazabicyclo[3.2.1]octan-3-yl)pyrimidine-2-carbonitrile]
- IC50: < 15 nM

SMILES: N#Cc1ccnc(N2CC3CCC(C2)N3Cc2ccc(-n3c(-c4cccnc4N)nc4ccc(-c5ccccc5)nc43)cc2)n1 [Example 212, 2-(8-(4-(2-(2-Aminopyridin-3-yl)-5-phenyl-3H-imidazo[4,5-b]pyridin-3-yl)benzyl)-3,8-diazabicyclo[3.2.1]octan-3-yl)pyrimidine-4-carbonitrile]
- IC50: 60 to 600 nM

SMILES: N#Cc1cc(N2CC3CCC(C2)N3Cc2ccc(-n3c(-c4cccnc4N)nc4ccc(-c5ccccc5)nc43)cc2)ncn1 [Example 213, 6-(8-(4-(2-(2-Aminopyridin-3-yl)-5-phenyl-3H-imidazo[4,5-b]pyridin-3-yl)benzyl)-3,8-diazabicyclo[3.2.1]octan-3-yl)pyrimidine-4-carbonitrile]
- IC50: 15 to 60 nM

SMILES: N#Cc1nccc(N2CCCN(Cc3ccc(-n4c(-c5cccnc5N)nc5ccc(-c6ccccc6)nc54)cc3)CC2)n1 [Example 214, 4-(4-(4-(2-(2-Aminopyridin-3-yl)-5-phenyl-3H-imidazo[4,5-b]pyridin-3-yl)benzyl)-1,4-diazepan-1-yl)pyrimidine-2-carbonitrile]
- IC50: 15 to 60 nM

SMILES: N#Cc1cc(N2CCCN(Cc3ccc(-n4c(-c5cccnc5N)nc5ccc(-c6ccccc6)nc54)cc3)CC2)ncn1 [Example 215, 6-(4-(4-(2-(2-aminopyridin-3-yl)-5-phenyl-3H-imidazo[4,5-b]pyridin-3-yl)benzyl)-1,4-diazepan-1-yl)pyrimidine-4-carbonitrile]
- IC50: < 15 nM

SMILES: N#Cc1nccc(N2C[C@H]3C[C@@H]2CN3Cc2ccc(-n3c(-c4cccnc4N)nc4ccc(-c5ccccc5)nc43)cc2)n1 [Example 216, 4-((1R,4R)-5-(4-(2-(2-Aminopyridin-3-yl)-5-phenyl-3H-imidazo[4,5-b]pyridin-3-yl)benzyl)-2,5-diazabicyclo[2.2.1]heptan-2-yl)pyrimidine-2-carbonitrile]
- IC50: < 15 nM

SMILES: N#Cc1ccnc(N2C[C@H]3C[C@@H]2CN3Cc2ccc(-n3c(-c4cccnc4N)nc4ccc(-c5ccccc5)nc43)cc2)n1 [Example 217, 2-((1R,4R)-5-(4-(2-(2-Aminopyridin-3-yl)-5-phenyl-3H-imidazo[4,5-b]pyridin-3-yl)benzyl)-2,5-diazabicyclo[2.2.1]heptan-2-yl)pyrimidine-4-carbonitrile]
- IC50: 15 to 60 nM

From patent US12209087B2, “AKT1 modulators” (Alterome Therapeutics, Inc., priority 2022, dated 2025)
